Consider 3 compounds from ChEMBL document CHEMBL2057107, “Synthesis and evaluation of aplysinopsin analogs as inhibitors of human monoamine oxidase A and B” (Bioorg Med Chem Lett, 2012).

pIC50: −log10 of the molar value.

For test [1], the target named is T1, Amine oxidase [flavin-containing] A (Homo sapiens, UniProt P21397).
T1 sequence (P21397 whole entry): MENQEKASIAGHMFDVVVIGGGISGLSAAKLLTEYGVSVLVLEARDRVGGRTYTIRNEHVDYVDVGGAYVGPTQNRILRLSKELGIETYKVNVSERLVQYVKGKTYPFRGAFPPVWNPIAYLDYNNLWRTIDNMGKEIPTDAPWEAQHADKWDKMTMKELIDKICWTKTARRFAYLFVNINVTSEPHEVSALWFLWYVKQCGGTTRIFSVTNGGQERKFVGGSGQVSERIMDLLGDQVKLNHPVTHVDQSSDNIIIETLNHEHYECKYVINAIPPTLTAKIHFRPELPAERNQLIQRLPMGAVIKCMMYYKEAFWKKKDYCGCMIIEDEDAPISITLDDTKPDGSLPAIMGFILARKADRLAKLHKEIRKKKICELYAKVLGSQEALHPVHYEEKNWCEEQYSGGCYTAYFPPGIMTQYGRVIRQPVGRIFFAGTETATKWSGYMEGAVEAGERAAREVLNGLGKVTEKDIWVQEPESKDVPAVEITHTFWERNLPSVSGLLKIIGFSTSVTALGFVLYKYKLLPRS
The experiment in a line: Inhibition of human recombinant MAO-A using kynuramine as substrate preincubated with compound for 15 mins measured after 20 mins by fluorometric analysis.

For test [2], the target named is T2, Amine oxidase [flavin-containing] B (Homo sapiens, UniProt P27338).
T2 sequence (P27338 whole entry): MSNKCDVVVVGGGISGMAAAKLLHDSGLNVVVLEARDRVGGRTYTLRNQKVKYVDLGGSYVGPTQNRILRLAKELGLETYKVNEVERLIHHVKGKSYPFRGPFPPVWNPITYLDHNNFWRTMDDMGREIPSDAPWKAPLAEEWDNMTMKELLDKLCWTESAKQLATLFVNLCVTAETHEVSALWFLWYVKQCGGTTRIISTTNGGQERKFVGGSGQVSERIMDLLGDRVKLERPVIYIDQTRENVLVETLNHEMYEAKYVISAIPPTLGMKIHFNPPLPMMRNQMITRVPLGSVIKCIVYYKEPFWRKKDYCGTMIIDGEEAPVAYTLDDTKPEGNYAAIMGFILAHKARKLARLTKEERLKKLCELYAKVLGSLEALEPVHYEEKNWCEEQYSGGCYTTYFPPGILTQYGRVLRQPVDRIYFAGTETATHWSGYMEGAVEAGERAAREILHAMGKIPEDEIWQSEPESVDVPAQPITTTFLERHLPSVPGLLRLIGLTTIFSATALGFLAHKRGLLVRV
The experiment in a line: Inhibition of human recombinant MAO-B using kynuramine as substrate preincubated with compound for 15 mins measured after 20 mins by fluorometric analysis.

For the next test, the species on record is Homo sapiens. The experiment in a line: Selectivity ratio of IC50 for human recombinant MAO-B to IC50 for human recombinant MAO-A.

With `C/N=C1\NC(=O)/C(=C/c2c[nH]c3cccc(Br)c23)N1`, the pIC50 (commonly the negative decadic logarithm of the IC50, by convention in mol/L) in test [1] is 5.74; in test [2], 5.15. The Ratio IC50 in the test filed under Homo sapiens amounted to 3.9.
Regarding `CN1C(=N)N/C(=C\c2c[nH]c3ccccc23)C1=O`, the results for the pIC50 in test [1] and in test [2] were 5.71 and 4.46, respectively. Moreover, in the test filed under Homo sapiens, the Ratio IC50 is 17.5.
On the same counts, the results for `O=C1NC(=S)N/C1=C\c1c[nH]c2c(Br)cccc12` are 6.27, 5.91 and 2.27.
